The text below walks through data of US8057829B2, “Methods for repelling insects using sesquiterpene hydrocarbons and their derivatives” (Sterling International Inc., priority 2008, dated 2011).

Structures are written as SMILES.

Assay [1] concerns antennae of housefly, sand fly, and mosquitoes (Aedes aegypti, Aedes increpitus, Anopheles gambiae). The assay is described as follows: GC-EAD antennal responses to SPME samples of patchouli essential oil. Conditions: component of patchouli essential oil SPME sample; response by one or more of the insects; FIG. 2. Here is the method: (§1) The following procedures were employed to test the EAD response of an insect antenna to a repellent compound. The GC-EAD technique provides an efficient tool for screening behaviorally active repellents. Several synthetic mixtures of potential insect repellent candidates, mostly sesquiterpene hydrocarbons and derivatives, were analyzed in splitless mode using a Varian CP-3800 GC equipped with a polar column (Innowax; 1.0 μm film thickness, 30 m×0.53 mm ID; J & W Scientific), and a 1:1 effluent splitter that allowed simultaneous flame ionization detection (FID) and EAD of the separated volatile compounds. Helium was used as the carrier gas, and the injector temperature was 220° C. The column temperature was 50° C. for 2 min, rising to 240° C. at 10° C./min, then held for 10 min. The outlet for the EAD was held in a humidified air stream flowing at 0.5 liter/min. over an antennal preparation. A glass capillary indifferent electrode filled with Beadle-Ephrussi Ringer, and grounded via a silver wire, was inserted into the severed insect's head with the antennae. A similar recording electrode connected to a high-impedance DC amplifier with automatic baseline drift compensation was placed in contact with the distal end of one antenna (Zhang et al., Chemoecology, 10:69-80 (2000)). The antennal signals were stored and analyzed on a PC equipped with a serial IDAC interface box and the program EAD ver. 2.5 (Syntech, Hilversum, The Netherlands). The compound 1-octen-3-ol (known attractant for many flies and mosquitoes) was included in most of the synthetic mixtures, as a positive control.

Assay [2] relates to housefly (Musca domestica) antenna. The assay is described as follows: GC-EAD antennal response, housefly. As to conditions: female housefly antenna; synthetic mixture, about 100 ng of each compound; FIG. 3.
Text: The sesquiterpene hydrocarbons and their derivatives disclosed herein have been identified as suitable insect repellents by testing via a gas chromatographic-electroantennographic detection (GC-EAD) method as described in Example 1 below. This method can be used to efficiently screen for potentially behaviorally active compounds, including insect repellents, attractants, deterrents, or attraction-inhibitors from complex natural sources or synthetic mixtures.
The GC-EAD responses of the female housefly antenna were tested on a synthetic mixture of 1-octen-3-ol, a known attractant used as a positive control, and representative sesquiterpene hydrocarbons and derivatives, (+)-longipinene, (−)-isolongifolene, (+)-longifolene, β-caryophyllene, α-humulene, and isolongifolenone, with about 100 ng of each compound in the mixture.
The GC-EAD responses of the male housefly antenna were tested on a synthetic mixture of 1-octen-3-ol, and two representative sesquiterpenes, β-caryophyllene and isocaryophyllene, with about 100 ng of each compound in the mixture.
as §1, with “control. The results of the experiments are shown in FIGS. 1-10 and described above.” for “control.”

The test system of assay [3] is female antennae of sand fly Phlebotomus papatasi and mosquitoes Aedes aegypti, Anopheles gambiae, Anopheles stephensi. Briefly: GC-EAD responses of sand fly and three mosquitoes to synthetic mixtures. Conditions: about 100 ng of each compound, on one or more of the sand fly or the mosquitoes, FIGS. 9 and 10. How it is done: The GC-EAD responses of female antennae of the sand fly, Phlebotomus papatasi, and three species of mosquitoes, Aedes aegypti, Anopheles gambiae, and anopheles stephensi were tested on a synthetic mixture of 1-octen-3-ol, six sesquiterpene hydrocarbons including (+)-longipinene, (−)-isolongifolene, (+)-longifolene, β-caryophyllene, isolongifolenone, and α-humulene, and several known insect repellents including ZE-nepetalactone, EZ-nepetalactone, with about 100 ng of each compound in the mixture.
The GC-EAD responses of female antennae of the sand fly, Phlebotomus papatasi, and three species mosquitoes, Aedes aegypti, Anopheles gambiae, and anopheles stephensi were tested on a synthetic mixture of 1-octen-3-ol, linalool, β-caryophyllene oxide, isocaryophyllene, β-caryophyllene, and α-humulene, and DEET, with about 100 ng of each compound in the mixture.
as §1, with “control. The results of the experiments are shown in FIGS. 1-10 and described above.” for “control.”

The subject of assay [4] is Aedes aegypti. The assay is described as follows: Y-tube olfactometer behavioral bioassay (spatial repellency). It is filed as in vivo. Here is the method: (§2) Aegypti and An. stephensi, and one species of sand fly, P. papatasi. Both the mosquitoes and the sand flies used in the study were from colonies maintained at the Walter Reed Army Institute of Research, Department of Entomology, Silver Spring, Md. This Y-tube bioassay system, equipped with CO2-enriched air (ca. 1 l/min) as an attractant, was made from three clear acrylic tubes (4″ diameter; 12″ length) with symmetrical 120° angles among the three tube arms; and a screen butterfly valve on the top part of the bottom releasing tube. These spatial repellency tests were carried out during 8:00 am-12:00 pm (photophase) time period for Ae. aegypti and 1:00-5:00 pm (shifted scotophase) time period for the species of night-flying mosquitoes and sand fly in a temperature and humidity controlled testing room (23-25° C. and 20-40% RH). Female mosquitoes or sand flies were stored at ˜25-26° C., 50-89% RH, 12:12 hr. (L/D), fed with 10% sucrose solution before testing. The candidate chemical (individual or mixture) dispenser and a blank control were placed in the upper left or right arm of the Y-tube before releasing 25-40, 6 to 10 day-old female mosquitoes (or 3 to 10 day-old sand flies) into the bottom tube via a small hole. After a 30-60 sec acclimation period, the butterfly screen valve (door) on the top of the bottom tube was opened. After 10 min., the valve was closed and the numbers of mosquitoes or sand flies in each arm (including the bottom tube) were counted. In order to minimize the position effect, the same experiment was repeated once with the treatment and blank control arms shifted using a new (clean) Y-tube olfactometer and a new batch of mosquitoes/sand flies. Data from these two replicates were pooled for χ2 goodness of fit test (df=1) between the treatment and blank control.

Assay [5] has as its system Anopheles stephensi. The description is as above. It is filed as in vivo. Here is the method:
as §2

Assay [6] relates to Aedes aegypti. Briefly: K&D module behavioral bioassay (topical repellency, biting). Type of assay: in vivo. Here is the method: (§3) The bioassays were conducted with a six-cell in vitro K&D module system, as disclosed in Klun and Debboun, J. Med. Entomol. 37:177-181 (2000), loaded with an “artificial blood” (CPDA+ATP) solution.
(§4) Clove essential oil, patchouli oil, and EAD-active potential repellents, β-caryophyllene, isocaryophyllene, (+)-longifolene, and their 1:1:1 mixture, plus α-guaiene, caryophyllene oxide, and a β-caryophyllene ketone, were tested using the six-cell in vitro K&D module system (Klun and Debboun, J. Med. Entomol. 37:177-181 (2000)) loaded with an “artificial blood” (CPDA+ATP) solution on both Ae. aegypti and An. stephensi in a dose-response fashion. The K&D in vitro assay system has three components: (1) a Plexiglas™ 29.7 cm.×7.1 cm K&D module composed of six adjacent cells, each designed to hold mosquitoes and each having a rectangular 3×4 cm floor hole that is opened and closed by a sliding door; (2) a Plexiglas™ six-well 29.7 cm×7.1 cm water water-bath warmed (38° C.) reservoir with six 3×4 cm wells designed to match the sliding-door openings of the K&D module base and to contain 6 mL warmed “artificial blood” wells covered with a collagen membrane; and (3) a 29.7 cm×7.1 cm'0.4 cm Teflon® separator having six rectangular openings like the K&D module. The K&D module was connected to a constant temperature water circulator at 38° C. The cells were covered with an Edicol collagen membrane strip. Nylon organdy strips with ink cell patterns were numbered and randomly treated with […] of the tested chemical in ethanol (ethanol alone as blank control), plus DEET (ca. 10 μg/cm^2) as a positive control. This treated nylon organdy strip was placed on top of the collagen membrane. The upper section of the K & D module with the six cells each containing 5 mosquitoes (5-10 d old, starved for 24 hr before testing) was placed on top of the nylon strip. The doors to the cells were slid open so the mosquitoes could be free to feed on the “artificial blood” via the collagen membrane if they were hungry. The experiments were allowed to run for 3 minutes, and the number of mosquitoes feeding (biting) in each cell was recorded. After each experiment, the nylon and collagen strips were removed. The CPDA+ATP solution was removed and allowed to dry prior to starting the next experiment. The experiments on each chemical and each mosquito species were run three times before the bottom section with circulated water was cleaned prior to use again.

Assay [7] concerns Anopheles stephensi. Described as above. It is filed as in vivo. How it is done:
as §3, §4

The test system of assay [8] is female mosquito Culex pipiens antenna. The assay is described as follows: GC-EAD antennal response, Culex pipiens. As to conditions: female Culex pipiens antennae; about 100 ng of each compound; responses weak, but repeatable; FIGS. 7 and 8. How it is done:
The GC-EAD responses of the female mosquito Culex pipiens antenna were tested on a synthetic mixture of 1-octen-3-ol, and two sesquiterpene hydrocarbons, β-caryophyllene and isocaryophyllene, with about 100 ng of each compound in the mixture.
The GC-EAD responses of the female mosquito Culex pipiens antenna were tested on a synthetic mixture of 1-octen-3-ol, and representative sesquiterpene hydrocarbons and derivatives including (+)-longipinene, (−)-isolongifolene, (+)-longifolene, β-caryophyllene, and isolongifolenone, with about 100 ng of each compound in the mixture.
Antennal responses were weak, but repeatable, thus are considered to be true responses.
as §1, with “control. The results of the experiments are shown in FIGS. 1-10 and described above.” for “control.”

Setting [9] is: Aedes aegypti females, release rate per chemical (1-60 mg/day), 10 min.
[10] abbreviates: Anopheles stephensi females, release rate per chemical (β-Caryophyllene 10 mg/day), 10 min.
The mark [11] stands for this setting: 10 μg/cm^2, DEET values are the positive control run with the chemical.

As for `CC1CCC2=C1CC1CCC2(C)C1(C)C` (stereo not drawn) [β-patchoulene, β-Patchoulene], the GC-EAD antennal activity result in assay [1] is listed as “elicited EAD-activity”.

Consider `C=C1C2CCC3(C)C(C2)C(C)CCC13C` (stereo not shown) [seychellene], for which, in assay [1], the GC-EAD antennal activity result is “elicited EAD-activity”.

In the case of `CC1=CCC2CC3C(C)CCC13C2(C)C` (stereo not drawn) [α-patchoulene, α-Patchoulene], in assay [1], the GC-EAD antennal activity result was “elicited EAD-activity”.

On to `CC1(C)C2=CC(=O)CC(C)(C)[C@]23CC[C@H]1C3` [isolongifolenone, reference compound], for which the results for the GC-EAD antennal activity entry in assay [2] and in assay [3] were “inactive” and “does not appear to have elicited antennal activity”, respectively.

In the case of `C=C(C)[C@@H]1CCC(C)=C2CC[C@H](C)[C@@H]2C1` [α-Bulnesene, α-bulnesene], the GC-EAD antennal activity result in assay [1] is recorded as “elicited EAD-activity”. The “Number of mosquitoes in each arm: Blank” value was 35 in assay [4] (setting [9]) and 33 in assay [5] (setting [10]). Besides, the “Number of mosquitoes in each arm: Bottom” value is 24 in assay [4] (setting [9]) and 25 in assay [5] (setting [10]). In addition, the “Number of mosquitoes in each arm: Repellent” value is 11 in assay [4] (Aedes aegypti females, release rate per chemical (1-60 mg/day), 10 min, two replicates pooled) and 13 in assay [5] (Anopheles stephensi females, release rate per chemical (1-60 mg/day; β-Caryophyllene 10 mg/day), 10 min). The “SAI (Spatial Activity Index)” value amounted to 0.52 in assay [4] (Aedes aegypti, (Nc − Nt)/(Nc + Nt), −1 to 1, zero indicating no response) and 0.43 in assay [5] (Anopheles stephensi, β-Caryophyllene 10 mg/day). The “% of biting (±SE) (N = 3)” value is 73 ± 7b % in assay [6] (setting [11]); 0 ± 0a % in assay [6] (100 μg/cm^2); 0 ± 0a % in assay [6] (500 μg/cm^2); 0 ± 0a % in assay [6] (1000 μg/cm^2); 87 ± 7b % in assay [7] (setting [11]); 0 ± 0a % in assay [7] (100 μg/cm^2). The “% of biting (±SE) (N = 3)” value in assay [7] (500 μg/cm^2) and in assay [7] (1000 μg/cm^2) was 0 ± 0a % each time.

Take `CC1=CC[C@@H]2[C@H]3[C@H]1[C@@]2(C)CCCC3(C)C` [(+)-longipinene, (+)-Longipinene]: the GC-EAD antennal activity entry is “active” in assay [2], “active” in assay [8] and “antennally active” in assay [3].
